Data from patent EP1080728A1, “PROSTAGLANDIN EP4 RECEPTOR AGONIST AND TREATMENT METHOD” (TORAY INDUSTRIES, INC., priority 1999, dated 2000).

What was measured:
[1] = molecular target: T1, human EP4 receptor subtype (Homo sapiens, UniProt P35408); assay: Receptor binding study using PGE2 receptor subtype expression cells (3H-PGE2 displacement, membrane fraction); details: human EP4 receptor transiently expressed in COS-7 cells, membrane fraction 10 µg/tube, 3H-PGE2 5 nM, 30°C for 1 hour; Ki = IC50/(1+[C]/Kd); read-out: DISSOCIATION CONSTANT Ki (nM) EP4
T1 construct: expressed in transfected cells; host or cells: COS-7 cells (transient expression), membrane fraction
Method: The compound represented by the following formula (II) among the compounds represented by the general formula (I) strongly binds to the EP4 receptor as a subtype of the PGE2 receptor. The binding activity was confirmed in comparison with PGE2 by an experiment using the PGE2 receptor subtype expression cells. [drawing 2]
The experiment was carried out according to the previous report [Breyer, R. M. et al., J. Biol. Chem. 269, 6163-6169 (1994)], wherein the human EP4 receptor subtype was transiently expressed using COS-7 cells. These cells were prepared as membrane samples. The membrane fraction prepared (10 µg/tube) was incubated with reaction solution containing ^3H-PGE2 at 30°C for 1 hour. The reaction was terminated with ice-cold buffer [10mM MES (pH6.0), 10mM MgCl2, 1mM EDTA], and the bound ^3H-PGE2 was trapped on a glass filter (GF/C) by vacuum filtration under a reduced pressure, followed by counting the radioactivity with a liquid scintillator.
The Kd value and Bmax were determined from a Scatchard plot according to the conventional method. The non-specific binding was determined by the amount of binding in the presence of an excess amount (5 µM) on the non-labeled PGE2. Inhibitory action of the ^3H-PGE2 binding by the compound to be tested was determined at a concentration of ^3H-PGE2 of 5 nM by adding various concentrations of the compound to be tested. […]

[2] = tested on: human normal lung fibroblast cells; assay: Effects on collagen production in human normal lung fibroblast cells (TGF-β1 stimulated, Siricol Collagen Assay Kit); assay type: cell-based; details: compound 1 µM with TGF-β1 5 ng/ml, incubated for 24 hours; salt-soluble collagen; Reference (without compound): 1.1 µg/100,000 cells
Method: The suppression action of the compound represented by the formula (II) on the collagen production from the fibroblast cells was confirmed by the following test method. After the human normal lung fibroblast cells were cultured for 48 hours under the condition of confluence (Eagle MEM culture medium with 0.45% FBS), the cells were added(1 µM) the compound represented by the formula (II) and transforming growth factor β1 (TGF-β1) at a concentration of 5 ng/ml, then incubated for 24 hours. The supernatant from the cell culture medium was concentrated by freeze-drying, and the amount of collagen (salt-soluble collagen) was […] assayed using Siricol Collagen Assay Kit (made by Biocolor Co.). The amounts of collagen in the supernatant were as follows: Reference: 1.1 µg/100,000 cells Compound (II): 0.5 µg/100,000 cells It was confirmed that production of collagen by TGF-β1 was suppressed by the compound according to the present invention.

T1 sequence (P35408 whole entry): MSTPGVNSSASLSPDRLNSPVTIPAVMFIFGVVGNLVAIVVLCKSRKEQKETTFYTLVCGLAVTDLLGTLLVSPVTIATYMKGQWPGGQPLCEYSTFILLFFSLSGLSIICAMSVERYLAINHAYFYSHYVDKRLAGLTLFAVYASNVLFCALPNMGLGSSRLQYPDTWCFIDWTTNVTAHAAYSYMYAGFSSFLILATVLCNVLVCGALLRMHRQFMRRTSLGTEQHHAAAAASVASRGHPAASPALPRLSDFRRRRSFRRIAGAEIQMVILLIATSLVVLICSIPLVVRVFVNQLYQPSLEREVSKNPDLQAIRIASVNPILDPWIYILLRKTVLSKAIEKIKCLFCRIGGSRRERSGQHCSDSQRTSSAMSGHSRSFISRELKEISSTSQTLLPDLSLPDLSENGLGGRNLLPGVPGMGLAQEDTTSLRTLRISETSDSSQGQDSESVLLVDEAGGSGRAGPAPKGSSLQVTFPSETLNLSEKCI

SMILES: O=C(O)CCc1cccc2c1O[C@H]1C[C@@H](O)[C@H](/C=C/[C@@H](O)CC3CCCCC3)[C@@H]21 [COMPOUND (II)]
- Ki [1]: 19 nM
- amounts of collagen in the supernatant [2]: 0.5 µg/100,000 cells
